Source: the NIST ThermoML archive (doi:10.1021/je501133u)

Assay: xn = mol fraction of the nth substance listed
Settings: 100 kPa, Liquid; for viscosity: Falling or rolling sphere viscometry; for mass density: Vibrating tube method

CCCCCCCO [heptan-1-ol] + CCO
Settings | mass density, 293.15 K [kg/m3] | mass density, 298.15 K [kg/m3] | mass density, 303.15 K [kg/m3] | mass density, 308.15 K [kg/m3] | viscosity, 293.15 K [mPa·s] | viscosity, 298.15 K [mPa·s] | viscosity, 303.15 K [mPa·s] | viscosity, 308.15 K [mPa·s]
x2 = 0 | 822.3 | 818.8 | 815.3 | 811.8 | 7.15 | 6.07 | 5.18 | 4.44
x2 = 0.1 | 820.6 | 817.1 | 813.6 | 810 | 6.21 | 5.29 | 4.54 | 3.91
x2 = 0.2004 | 818.7 | 815.1 | 811.6 | 808 | 5.36 | 4.59 | 3.96 | 3.44
x2 = 0.3007 | 816.9 | 813.3 | 809.7 | 806 | 4.63 | 4 | 3.48 | 3.03
x2 = 0.3995 | 814.7 | 811.1 | 807.4 | 803.8 | 4.04 | 3.51 | 3.07 | 2.7
x2 = 0.5007 | 812.1 | 808.4 | 804.7 | 800.9 | 3.41 | 2.99 | 2.64 | 2.33
x2 = 0.5995 | 809 | 805.3 | 801.5 | 797.7 | 2.85 | 2.52 | 2.23 | 1.99
x2 = 0.7001 | 805.5 | 801.6 | 797.8 | 793.9 | 2.34 | 2.09 | 1.87 | 1.67
x2 = 0.8002 | 801.4 | 797.4 | 793.5 | 789.5 | 1.9 | 1.71 | 1.54 | 1.39
x2 = 0.9003 | 796.5 | 792.4 | 788.3 | 784.2 | 1.52 | 1.38 | 1.25 | 1.13
